Results taken from ChEMBL document CHEMBL1152252, “Synthesis, biological evaluation, structural-activity relationship, and docking study for a series of benzoxepin-derived estrogen receptor modulators” (Bioorg Med Chem, 2008).
Activity calls are given as the source filed them. No cut-off for these calls is given here.

Experiments:
[1] = system: MCF7; assay: Antiproliferative activity against estrogen receptor dependent human MCF7 cells at 10 uM after 72 hrs by LDH assay; format: functional
[2] = system: MCF7; assay: Antiproliferative activity against estrogen receptor dependent human MCF7 cells after 72 hrs by MTT assay; format: functional, cell-based; settings: MCF7, 72 h
[3] = system: MDA-MB-231; assay: Antiproliferative activity against hormone independent human MDA-MB-231 cells upto 100 nM after 72 hrs by MTT assay; format: functional, cell-based
[4] = target: T1, Estrogen receptor (Homo sapiens, UniProt P03372); assay: biochemical
T1 sequence (P03372 whole entry): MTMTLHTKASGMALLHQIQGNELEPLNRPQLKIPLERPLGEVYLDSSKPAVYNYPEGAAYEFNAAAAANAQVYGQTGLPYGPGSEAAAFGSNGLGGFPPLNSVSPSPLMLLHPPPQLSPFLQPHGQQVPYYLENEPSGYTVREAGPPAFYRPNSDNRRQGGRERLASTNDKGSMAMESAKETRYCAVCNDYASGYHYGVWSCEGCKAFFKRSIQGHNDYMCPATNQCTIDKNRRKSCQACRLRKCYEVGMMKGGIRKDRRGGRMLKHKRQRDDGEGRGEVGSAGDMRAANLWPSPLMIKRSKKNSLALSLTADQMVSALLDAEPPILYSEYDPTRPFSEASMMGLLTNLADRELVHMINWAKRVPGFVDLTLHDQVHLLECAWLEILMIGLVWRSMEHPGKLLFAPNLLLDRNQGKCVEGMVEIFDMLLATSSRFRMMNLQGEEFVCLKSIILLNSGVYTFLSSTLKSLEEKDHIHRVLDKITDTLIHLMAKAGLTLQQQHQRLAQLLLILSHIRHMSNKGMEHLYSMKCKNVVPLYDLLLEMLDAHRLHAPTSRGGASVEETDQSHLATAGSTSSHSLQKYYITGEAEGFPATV
Description: Displacement of fluorescein labeled estradiol from human recombinant ERalpha expressed in baculovirus infected insect cells by fluorescence polarization assay

[5] = target: Estrogen receptor beta (Homo sapiens, UniProt Q92731); assay: biochemical
Description: Displacement of fluorescein labeled estradiol from human recombinant ERbeta expressed in baculovirus infected insect cells by fluorescence polarization assay

[6] = system: Ishikawa; assay: Estrogenic stimulatory activity in human Ishikawa cells assessed as alkaline phosphatase activity at 1 uM after 72 hrs in absence of estradiol; format: functional
[7] = system: Ishikawa; assay: Antiestrogenic activity in human Ishikawa cells assessed as inhibition of estrogen-induced alkaline phosphatase activity after 72 hrs; format: functional, cell-based
[8] = system: MDA-MB-231; assay: Antiproliferative activity against hormone independent human MDA-MB-231 cells after 72 hrs by MTT assay; format: functional, cell-based; settings: MDA-MB-231, 72 h

Chain of Estrogen receptor beta (Q92731 whole entry): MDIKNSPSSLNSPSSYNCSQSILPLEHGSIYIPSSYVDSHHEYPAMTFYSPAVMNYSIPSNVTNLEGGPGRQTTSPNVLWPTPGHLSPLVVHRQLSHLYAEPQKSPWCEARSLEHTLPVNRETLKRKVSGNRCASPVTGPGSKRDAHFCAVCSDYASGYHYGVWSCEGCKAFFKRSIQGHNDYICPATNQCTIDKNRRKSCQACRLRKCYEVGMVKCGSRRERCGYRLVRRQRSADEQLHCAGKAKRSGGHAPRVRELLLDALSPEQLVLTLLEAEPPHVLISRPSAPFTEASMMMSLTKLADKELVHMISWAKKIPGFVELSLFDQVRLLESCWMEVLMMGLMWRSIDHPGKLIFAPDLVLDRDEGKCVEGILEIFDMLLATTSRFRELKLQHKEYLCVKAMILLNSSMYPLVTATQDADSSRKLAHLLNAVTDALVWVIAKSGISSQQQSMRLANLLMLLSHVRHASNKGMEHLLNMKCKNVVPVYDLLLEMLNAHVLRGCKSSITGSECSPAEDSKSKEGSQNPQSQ

`COc1ccc2c(c1)OCCC=C2c1ccc(O)cc1` showed an Activity [1] of 17%.
With `Oc1cccc(C2=C(c3ccc(OCCN4CCCC4)cc3)c3ccc(F)cc3OCC2)c1` the IC50 [2] was 359 nM, the Activity [3] was “inactive” and the IC50 [4] was 14 nM. For the same compound, the IC50 [5] was 6 nM.
`Fc1ccc(C2=C(c3ccc(OCCN4CCCC4)cc3)c3ccc(F)cc3OCC2)cc1` was tested, and the IC50 [2] was 450 nM, the Activity [3] was “inactive” and the IC50 [4] was 126 nM. The IC50 [5] was 262 nM.
With `COc1ccc2c(c1)OCCC(c1ccc(O)cc1)=C2c1ccc(OCCN2CCCCC2)cc1` the IC50 [2] was 1540 nM and the Activity [3] was “inactive”.
In the case of `c1ccc(C2=C(c3ccc(OCCN4CCCC4)cc3)c3ccccc3OCC2)cc1`, the IC50 [2] is reported as 1580 nM, the Activity [3] is reported as “inactive” and the Activity [1] is reported as 8%.
Work on `Oc1ccc(C2=CCCOc3ccccc32)cc1` yielded an Activity [1] of 17%.
For `CN(C)CCOc1ccc(C2=C(c3cccs3)CCOc3ccccc32)cc1`, the IC50 [2] was 16700 nM and the Activity [3] was “inactive”.
For `CC/C(=C(\c1ccccc1)c1ccc(OCCN(C)C)cc1)c1ccccc1` [TAMOXIFEN], the IC50 [2] was 4120 nM, the Activity [3] was “inactive” and the Activity [6] was 16.5%.
For `Oc1ccc(C2=C(c3ccc(OCCN4CCCC4)cc3)c3ccc(F)cc3OCC2)cc1`, the IC50 [2] was 21.4 nM, the IC50 [7] was 194 nM and the Activity [3] was “inactive”. For the same compound, the IC50 [4] was 10.4 nM, the IC50 [5] was 0.7 nM and the IC50 [8] was 6750 nM. The Activity [6] was 9.7%.
`Fc1ccc2c(c1)OCCC(c1ccccc1)=C2c1ccc(OCCN2CCCC2)cc1` was tested, and the IC50 [2] was 1870 nM, the Activity [3] was “inactive” and the IC50 [4] was 16.2 nM. For the same compound, the IC50 [5] was 31 nM.
In the case of `Oc1ccc(C2=C(c3ccc(OCCN4CCCCC4)cc3)c3ccc(F)cc3OCC2)cc1`, the IC50 [2] is reported as 156 nM, the Activity [3] is reported as “inactive” and the IC50 [4] is reported as 6.5 nM. The IC50 [5] was 8.78 nM.
`Oc1ccc(C2=C(c3ccc(OCCN4CCCC4)cc3)CCOc3cc(F)ccc32)cc1` was tested, and the IC50 [2] was 6500 nM, the IC50 [7] was 216 nM and the Activity [3] was “inactive”. For the same compound, the IC50 [4] was 5.57 nM, the IC50 [5] was 17.3 nM and the Activity [6] was 23%.
For `CCC(=C(c1ccc(O)cc1)c1ccc(OCCN(C)C)cc1)c1ccccc1`, the IC50 [2] was 107 nM and the Activity [3] was “inactive”.
In the case of `CS(=O)(=O)c1ccc(C2=C(c3ccc(OCCN4CCCC4)cc3)c3ccc(F)cc3OCC2)cc1`, the IC50 [2] is reported as 4560 nM, the Activity [3] is reported as “inactive” and the IC50 [4] is reported as over 15000 nM. The IC50 [5] was over 15000 nM.
In the case of `Oc1ccc(C2=C(c3ccc(OCCN4CCCC4)cc3)c3ccc(O)cc3OCC2)cc1`, the IC50 [2] is reported as 11.9 nM, the IC50 [7] is reported as 20.8 nM and the Activity [3] is reported as “inactive”. The IC50 [4] was 8.4 nM, the IC50 [5] was 2.9 nM and the IC50 [8] was 2600 nM. It also gave an Activity [6] of 6% and an Activity [1] of 11%.
